Test results taken from patent US11324832B2, “Tripartite modulators of endosomal G protein-coupled receptors” (Endosome Therapeutics, Inc., priority 2015, dated 2022).
Where a SMILES comes first, the peptide text is derived from it. [ ]: non-standard residue; d: D form. The star is where a group is joined. X1 = CC(C)CCC[C@@H](C)[C@H]1CC[C@H]2[C@@H]3CC[C@H]4C[C@@H](O*)CC[C@]4(C)[C@H]3CC[C@]12C; NMeL = CN[C@@H](CC(C)C)C(=O)O; PEG4 = NCCOCCOCCOCCOCCC(=O)O; PEG3 = NCCOCCOCCOCCC(=O)O; Ava = NCCCCC(=O)O

Tests used:
NK1R [1] = target: T1, NK1R (Rattus norvegicus, UniProt P14600); assay: BRET between NK1R-RLuc8 and βarr1/2-YFP in HEK293 cells; format: cell-based; parameters: Full length and truncated 6312 rat HA-NK1R have been described; expressed in transfected cells; host or cells: HEK293 (transient); conditions: agonist alone
Description: Bioluminescence Resonance Energy Transfer (BRET) was employed to quantitatively assess the proximity of the NK1R to key regulators of GPCR trafficking (βarrs), and resident proteins of plasma (KRas) and early endosomal (Rab5a) membranes in HEK293 cells (FIG. 1A).
HEK293 cells were transfected with the following cDNAs: 1 μg NK1R-RLuc8 or 1 μg CLR-RLuc8+1 μg Myc-RAMP1+4 μg KRas-Venus, 4 μg Rab5a-Venus, 4 μg βarr1-YFP, or 4 μg βarr2-YFP; or 1 μg NK1R+0.5 μg Gαq-RLuc8+1 μg Gβ1+4 μg Gγ2-Venus; or 1 μg NK1R+0.5 μg Gαq-RLuc8+1 μg Gβ1+1 μg Gγ2+4 μg Rab5a-Venus. After 48 h, cells were equilibrated in Hank's balanced salt solution (HBSS) at 37° C., and incubated with the RLuc substrate coelenterazine h (5 μM, 15 min).

NK1R [2] = target: T1, NK1R; assay: FRET biosensors of compartmentalized signaling (ERK, PKC, cAMP) in NK1R-expressing HEK293 cells; format: cell-based; parameters: Full length and truncated 6312 rat HA-NK1R have been described; expressed in transfected cells; host or cells: HEK293 (transient); conditions: agonist alone, imaged over 20 min
Description: To study the link between NK1R trafficking and signaling, the NK1R and Förster Resonance Energy Transfer (FRET) biosensors targeted to detect activated ERK in the cytosol (CytoEKAR) or nucleus (NucEKAR, FIG. 2A), activated PKC at the plasma membrane (pmCKAR) or in the cytosol (CytoCKAR, FIG. 2C), and cAMP at the plasma membrane (pmEpac2) or in the cytosol (CytoEpac2, FIG. 2E) were expressed in HEK293 cells.
HEK293 cells were transfected with 55 ng/well rat NK1R with N-terminal HA. 11 epitope tag (HA-NK1R) or CLR plus RAMP1 and 40 ng/well FRET biosensors. FRET was assessed 48 h after transfection, following serum restriction (0.5% FBS overnight). For experiments using clathrin or dynamin siRNA, cells were transfected with 55 ng/well rat HA-NK1R, 40 ng/well FRET biosensor and 25 nM/well scrambled, clathrin or dynamin ON-TARGETplus SMARTpool siRNA (GE Dharmacon). FRET was assessed 72 h after transfection, following serum restriction (0.5% FBS overnight). Cells were equilibrated in HBSS at 37° C. and FRET was analyzed using a GE Healthcare INCell 2000 Analyzer. For GFP/RFP emission ratio analysis, cells were sequentially excited using a FITC filter (490/20) with emission measured using dsRed (605/52) and FITC (525/36) filters, and a polychroic optimized for the FITC/dsRed filter pair (Quad4). For CFP/YFP emission ratio analysis, cells were sequentially excited using a CFP filter (430/24) with emission measured using YFP (535/30) and CFP (470/24) filters, and a polychroic optimized for the CFP/YFP filter pair (Quad3). Cells were imaged every 1 min, allowing image capture of 14 wells per minute. Baseline emission ratio images were captured for 4 min. […] Cells were then stimulated with the positive control (200 nM phorbol 12,13-dibutyrate for ERK; 200 nM phorbol 12,13-dibutyrate with phosphatase inhibitor cocktail for PKC; 10 μM forskolin, 100 μM 3-isobutyl-1-methylxanthine, 100 nM PGE1 for cAMP) for 10 min to generate a maximal increase, and positive emission ratio images were captured for 4 min. Data were analyzed as described and expressed as emission ratios relative to baseline for each cell (F/F0). Cells with >10% change in F/F0 after stimulation with positive controls were selected for analysis.

NK1R [3] = target: T1, NK1R; assay: Calcium mobilization assay, agonist mode, HEK293 cells expressing NK1R; format: cell-based; parameters: Full length and truncated 6312 rat HA-NK1R have been described; expressed in transfected cells; host or cells: HEK293
Source text: GR73632 was conjugated to cholestanol (Compound 3) or ethyl ester (GR73632-ethyl ester) via a flexible PEG linker. The effect of these compounds in HEK293 cells expressing NK1R was then studied.

[4] = target: T2, endothelin converting enzyme 1 (Homo sapiens, UniProt P42892); conditions: cited from earlier work
T2 sequence (P42892 1-770): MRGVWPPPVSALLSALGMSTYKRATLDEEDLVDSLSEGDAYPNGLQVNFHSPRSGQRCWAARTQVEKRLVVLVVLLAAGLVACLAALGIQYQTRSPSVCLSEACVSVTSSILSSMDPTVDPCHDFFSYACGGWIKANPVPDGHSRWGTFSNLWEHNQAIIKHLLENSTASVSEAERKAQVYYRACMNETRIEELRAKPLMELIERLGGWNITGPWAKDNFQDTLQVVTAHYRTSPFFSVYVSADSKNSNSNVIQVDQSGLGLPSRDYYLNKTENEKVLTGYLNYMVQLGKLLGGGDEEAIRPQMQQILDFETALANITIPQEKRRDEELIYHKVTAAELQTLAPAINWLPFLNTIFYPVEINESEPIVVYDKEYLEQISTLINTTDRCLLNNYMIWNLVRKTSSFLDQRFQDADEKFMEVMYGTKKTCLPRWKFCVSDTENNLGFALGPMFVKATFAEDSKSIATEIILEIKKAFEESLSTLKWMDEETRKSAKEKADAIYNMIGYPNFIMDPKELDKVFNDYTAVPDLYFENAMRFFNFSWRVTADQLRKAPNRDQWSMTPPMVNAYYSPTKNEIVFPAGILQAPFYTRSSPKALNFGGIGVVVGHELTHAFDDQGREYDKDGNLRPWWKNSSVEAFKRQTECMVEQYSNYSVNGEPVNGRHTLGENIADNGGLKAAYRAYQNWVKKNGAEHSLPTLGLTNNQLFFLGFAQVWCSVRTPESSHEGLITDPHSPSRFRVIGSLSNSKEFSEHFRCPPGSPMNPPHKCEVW

T1 sequence (P14600 whole entry, the tested form may be a part): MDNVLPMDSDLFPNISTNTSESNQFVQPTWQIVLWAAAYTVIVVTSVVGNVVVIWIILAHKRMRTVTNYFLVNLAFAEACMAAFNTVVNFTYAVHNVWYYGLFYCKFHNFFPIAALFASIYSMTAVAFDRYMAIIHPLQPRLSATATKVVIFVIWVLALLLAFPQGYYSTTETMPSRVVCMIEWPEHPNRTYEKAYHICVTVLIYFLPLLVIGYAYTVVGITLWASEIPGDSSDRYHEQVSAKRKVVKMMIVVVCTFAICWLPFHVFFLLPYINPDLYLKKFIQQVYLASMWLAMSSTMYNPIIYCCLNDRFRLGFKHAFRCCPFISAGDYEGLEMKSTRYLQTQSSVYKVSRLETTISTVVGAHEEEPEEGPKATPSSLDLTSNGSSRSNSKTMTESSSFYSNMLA

| Compound | recruitment of βarrs (BRET NK1R-RLuc8 / βarr1-YFP, βarr2-YFP) (NK1R [1]) | cytosolic ERK activation (FRET CytoEKAR) (NK1R [2]) | nuclear ERK activation (FRET NucEKAR) (NK1R [2]) | decrease in potency compared to the free agonist (NK1R [3]; calcium mobilization) [fold] | susceptibility to cleavage by endothelin converting enzyme 1 [4] | EC50 (NK1R [3]; HEK293 cells expressing NK1R, given as logEC50 (negative)) [nM] |
| --- | --- | --- | --- | --- | --- | --- |
| CSCC[C@H](NC(=O)[C@H](CC(C)C)N(C)C(=O)[C@@H]1CCCN1C(=O)[C@H](Cc1ccccc1)NC(=O)[C@H](Cc1ccccc1)NC(=O)CCCCNC(=O)CCOCCOCCOCCOCCNC(=O)CCOCCOCCOCCNC(=O)CCOCCOCCOCCOCCNC(=O)[C@H](CC(=O)O[C@H]1CC[C@@]2(C)[C@@H](CC[C@@H]3[C@@H]2CC[C@]2(C)[C@@H]([C@H](C)CCCC(C)C)CC[C@@H]32)C1)NC(C)=O)C(N)=O [Compound 3] (Ac-D(X1)[PEG4][PEG3][PEG4][Ava]FFP[NMeL]M-NH2) | does not induce recruitment of βarrs | no cytosolic ERK | stimulates sustained nuclear ERK phosphorylation | ~100 | – | – |
| CSCC[C@H](NC(=O)[C@H](CC(C)C)N(C)C(=O)[C@@H]1CCCN1C(=O)[C@H](Cc1ccccc1)NC(=O)[C@H](Cc1ccccc1)NC(=O)CCCCN)C(N)=O [GR73632, Ava-Phe-Phe-Pro-N-MeLeu-Met-NH2] (H-[Ava]FFP[NMeL]M-NH2) | – | stimulated sustained cytosolic and nuclear ERK phosphorylation | stimulated sustained cytosolic and nuclear ERK phosphorylation | – | not susceptible to cleavage | 0.933 |
